Test results: ChEMBL document CHEMBL4665887, “Identification, Structure-Activity Relationships of Marine-Derived Indolocarbazoles, and a Dual PKCθ/δ Inhibitor with Potent Antipancreatic Cancer Efficacy” (J Med Chem, 2020)

Legend:
[1] = Toxicity in BALB/c mouse model of patient-derived xenograft implanted with patient-derived pancreatic cancer cells assessed as effect on body weight at 30 mg/kg, ip QD for 18 days relative to control; assay type: organism-based; details: in vivo, 432 h, time 18 day
BXPC-3 [2] = experiment: Antitumor activity against human BXPC-3 cells xenografted in nude BALB/c mouse assessed as inhibition of tumor growth at 30 mg/kg, ip QD for 18 days relative to control; assay type: functional; details: BXPC-3, ip, 432 h, time 18 day, read-out: TGI
[3] = Toxicity in nude BALB/c mouse xenografted with human BXPC-3 cells assessed as effect on body weight level at 30 mg/kg, ip QD for 18 days relative to control; assay type: organism-based; details: in vivo, 432 h, time 18 day
[4] = Antitumor activity against patient-derived pancreatic cancer cells xenografted in BALB/c mouse model of patient-derived xenograft assessed as inhibition of tumor growth at 30 mg/kg, ip QD for 18 days relative to control; assay type: functional; details: Homo sapiens, Pancreatic cancer cell, 432 h, time 18 day, read-out: TGI
[5] = Toxicity in BALB/c mouse model of patient-derived xenograft implanted with patient-derived pancreatic cancer cells assessed as effect on normal anatomical structures of heart at 30 mg/kg, ip QD for 18 days relative to control; assay type: organism-based; details: in vivo, 432 h, time 18 day
[6] = Toxicity in BALB/c mouse model of patient-derived xenograft implanted with patient-derived pancreatic cancer cells assessed as effect on normal anatomical structures of liver at 30 mg/kg, ip QD for 18 days relative to control; assay type: organism-based; details: in vivo, 432 h, time 18 day
[7] = Toxicity in BALB/c mouse model of patient-derived xenograft implanted with patient-derived pancreatic cancer cells assessed as effect on normal anatomical structures of lung at 30 mg/kg, ip QD for 18 days relative to control; assay type: organism-based; details: in vivo, 432 h, time 18 day
[8] = Toxicity in BALB/c mouse model of patient-derived xenograft implanted with patient-derived pancreatic cancer cells assessed as effect on normal anatomical structures of spleen at 30 mg/kg, ip QD for 18 days relative to control; assay type: organism-based; details: in vivo, 432 h, time 18 day
[9] = Toxicity in BALB/c mouse model of patient-derived xenograft implanted with patient-derived pancreatic cancer cells assessed as effect on normal anatomical structures of kidney at 30 mg/kg, ip QD for 18 days relative to control; assay type: organism-based; details: in vivo, 432 h, time 18 day
[10] = Toxicity in BALB/c mouse model of patient-derived xenograft implanted with patient-derived pancreatic cancer cells assessed as effect on normal anatomical structures of heart at 6 mg/kg, iv dosed once every 2 days for 18 days relative to control; assay type: organism-based; details: in vivo, 432 h, time 18 day
[11] = target: Protein kinase C theta type (Homo sapiens, UniProt Q04759); experiment: Inhibition of PKCtheta (unknown origin) by HTRF assay
BXPC-3 [12] = experiment: Antitumor activity against human BXPC-3 cells xenografted in nude BALB/c mouse assessed as inhibition of tumor growth at 6 mg/kg, iv QD for 18 days relative to control; assay type: functional; details: BXPC-3, iv, 432 h, time 18 day, read-out: TGI
[13] = Toxicity in nude BALB/c mouse xenografted with human BXPC-3 cells assessed as effect on body weight level at 6 mg/kg, iv QD for 18 days relative to control; assay type: organism-based; details: in vivo, 432 h, time 18 day
BXPC-3 [14] = experiment: Cytotoxicity in human BXPC-3 cells assessed as reduction in cell viability incubated for 24 hrs by CCK8 assay; assay type: functional, cell-based; details: BXPC-3, 24 h
ASPC1 = experiment: Cytotoxicity in human ASPC1 cells assessed as reduction in cell viability incubated for 24 hrs by CCK8 assay; assay type: functional, cell-based; details: ASPC1, 24 h
A549 = experiment: Cytotoxicity in human A549 cells assessed as reduction in cell viability incubated for 24 hrs by CCK8 assay; assay type: functional, cell-based; details: A549, 24 h
NCI-H1299 = experiment: Cytotoxicity in human NCI-H1299 cells assessed as reduction in cell viability incubated for 24 hrs by CCK8 assay; assay type: functional, cell-based; details: NCI-H1299, 24 h
NCI-H1975 = experiment: Cytotoxicity in human NCI-H1975 cells assessed as reduction in cell viability incubated for 24 hrs by CCK8 assay; assay type: functional, cell-based; details: NCI-H1975, 24 h
PC-9 = experiment: Cytotoxicity in human PC-9 cells assessed as reduction in cell viability incubated for 24 hrs by CCK8 assay; assay type: functional, cell-based; details: PC-9, 24 h
RKO = experiment: Cytotoxicity in human RKO cells assessed as reduction in cell viability incubated for 24 hrs by CCK8 assay; assay type: functional, cell-based
MGC-803 = experiment: Cytotoxicity in human MGC-803 cells assessed as reduction in cell viability incubated for 24 hrs by CCK8 assay; assay type: functional, cell-based; details: MGC-803, 24 h
BXPC-3 [15] = experiment: Induction of apoptosis in human BXPC-3 cells assessed as viable cells level at 0.25 uM incubated for 24 hrs by PI and annexin V-FITC staining based flow cytometry (reference value: 93.43%); assay type: functional
BXPC-3 [16] = experiment: Induction of apoptosis in human BXPC-3 cells assessed as early apoptotic cells level at 0.25 uM incubated for 24 hrs by PI and annexin V-FITC staining based flow cytometry (reference value: 5.69%); assay type: functional
BXPC-3 [17] = experiment: Induction of apoptosis in human BXPC-3 cells assessed as late apoptotic cells level at 0.25 uM incubated for 24 hrs by PI and annexin V-FITC staining based flow cytometry (reference value: 0.83%); assay type: functional
BXPC-3 [18] = experiment: Induction of apoptosis in human BXPC-3 cells assessed as necrotic cells level at 0.25 uM incubated for 24 hrs by PI and annexin V-FITC staining based flow cytometry (reference value: 0.05%); assay type: functional
BXPC-3 [19] = experiment: Induction of apoptosis in human BXPC-3 cells assessed as viable cells level at 0.5 uM incubated for 24 hrs by PI and annexin V-FITC staining based flow cytometry (reference value: 93.43%); assay type: functional
BXPC-3 [20] = experiment: Induction of apoptosis in human BXPC-3 cells assessed as early apoptotic cells level at 0.5 uM incubated for 24 hrs by PI and annexin V-FITC staining based flow cytometry (reference value: 5.69%); assay type: functional
BXPC-3 [21] = experiment: Induction of apoptosis in human BXPC-3 cells assessed as late apoptotic cells level at 0.5 uM incubated for 24 hrs by PI and annexin V-FITC staining based flow cytometry (reference value: 0.83%); assay type: functional
BXPC-3 [22] = experiment: Induction of apoptosis in human BXPC-3 cells assessed as necrotic cells level at 0.5 uM incubated for 24 hrs by PI and annexin V-FITC staining based flow cytometry (reference value: 0.05%); assay type: functional
[23] = target: Protein kinase C delta type (Homo sapiens, UniProt Q05655); experiment: Inhibition of PKCdelta (unknown origin) by HTRF assay
[24] = Effect in PKCtheta protein expression in human BXPC-3 cells at 0.25 to 1 uM incubated for 4 hrs by Western blot analysis; assay type: ADME, cell-based; details: bxpc-3, 4 h, dose 0.25-1 µM
[25] = Antitumor activity against patient-derived pancreatic cancer cells xenografted in BALB/c mouse model of patient-derived xenograft assessed as inhibition of tumor growth at 6 mg/kg, iv dosed once every 2 days for 18 days relative to control; assay type: functional; details: Homo sapiens, Pancreatic cancer cell, 432 h, time 18 day, read-out: TGI
[26] = Toxicity in BALB/c mouse model of patient-derived xenograft implanted with patient-derived pancreatic cancer cells assessed as effect on body weight at 6 mg/kg, iv dosed once every 2 days for 18 days relative to control; assay type: organism-based; details: in vivo, 432 h, time 18 day
[27] = Toxicity in BALB/c mouse model of patient-derived xenograft implanted with patient-derived pancreatic cancer cells assessed as effect on normal anatomical structures of liver at 6 mg/kg, iv dosed once every 2 days for 18 days relative to control; assay type: organism-based; details: in vivo, 432 h, time 18 day
[28] = Toxicity in BALB/c mouse model of patient-derived xenograft implanted with patient-derived pancreatic cancer cells assessed as effect on normal anatomical structures of lung at 6 mg/kg, iv dosed once every 2 days for 18 days relative to control; assay type: organism-based; details: in vivo, 432 h, time 18 day
[29] = Toxicity in BALB/c mouse model of patient-derived xenograft implanted with patient-derived pancreatic cancer cells assessed as effect on normal anatomical structures of spleen at 6 mg/kg, iv dosed once every 2 days for 18 days relative to control; assay type: organism-based; details: in vivo, 432 h, time 18 day
[30] = Toxicity in BALB/c mouse model of patient-derived xenograft implanted with patient-derived pancreatic cancer cells assessed as effect on normal anatomical structures of kidney at 6 mg/kg, iv dosed once every 2 days for 18 days relative to control; assay type: organism-based; details: in vivo, 432 h, time 18 day

Protein kinase C theta type, sequence (Q04759 whole entry): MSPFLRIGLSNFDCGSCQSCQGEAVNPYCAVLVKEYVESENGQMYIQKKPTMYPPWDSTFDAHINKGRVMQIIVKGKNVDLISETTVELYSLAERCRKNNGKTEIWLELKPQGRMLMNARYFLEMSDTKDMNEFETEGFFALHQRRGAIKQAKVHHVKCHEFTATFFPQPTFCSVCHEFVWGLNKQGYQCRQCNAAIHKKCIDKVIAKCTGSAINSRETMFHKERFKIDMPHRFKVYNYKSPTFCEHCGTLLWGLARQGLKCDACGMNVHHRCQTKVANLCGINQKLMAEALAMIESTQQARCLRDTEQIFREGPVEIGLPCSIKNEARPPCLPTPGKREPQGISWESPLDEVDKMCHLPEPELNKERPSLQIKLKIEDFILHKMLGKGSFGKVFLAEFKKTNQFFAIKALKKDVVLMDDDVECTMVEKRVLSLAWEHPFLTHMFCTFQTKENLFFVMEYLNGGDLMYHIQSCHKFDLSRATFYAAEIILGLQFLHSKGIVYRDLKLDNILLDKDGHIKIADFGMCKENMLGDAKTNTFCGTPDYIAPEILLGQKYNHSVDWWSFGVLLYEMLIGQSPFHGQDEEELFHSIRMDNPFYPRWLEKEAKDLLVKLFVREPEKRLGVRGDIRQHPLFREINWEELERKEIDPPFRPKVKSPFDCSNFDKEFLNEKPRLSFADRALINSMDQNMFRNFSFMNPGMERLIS
Protein kinase C delta type, sequence (Q05655 whole entry): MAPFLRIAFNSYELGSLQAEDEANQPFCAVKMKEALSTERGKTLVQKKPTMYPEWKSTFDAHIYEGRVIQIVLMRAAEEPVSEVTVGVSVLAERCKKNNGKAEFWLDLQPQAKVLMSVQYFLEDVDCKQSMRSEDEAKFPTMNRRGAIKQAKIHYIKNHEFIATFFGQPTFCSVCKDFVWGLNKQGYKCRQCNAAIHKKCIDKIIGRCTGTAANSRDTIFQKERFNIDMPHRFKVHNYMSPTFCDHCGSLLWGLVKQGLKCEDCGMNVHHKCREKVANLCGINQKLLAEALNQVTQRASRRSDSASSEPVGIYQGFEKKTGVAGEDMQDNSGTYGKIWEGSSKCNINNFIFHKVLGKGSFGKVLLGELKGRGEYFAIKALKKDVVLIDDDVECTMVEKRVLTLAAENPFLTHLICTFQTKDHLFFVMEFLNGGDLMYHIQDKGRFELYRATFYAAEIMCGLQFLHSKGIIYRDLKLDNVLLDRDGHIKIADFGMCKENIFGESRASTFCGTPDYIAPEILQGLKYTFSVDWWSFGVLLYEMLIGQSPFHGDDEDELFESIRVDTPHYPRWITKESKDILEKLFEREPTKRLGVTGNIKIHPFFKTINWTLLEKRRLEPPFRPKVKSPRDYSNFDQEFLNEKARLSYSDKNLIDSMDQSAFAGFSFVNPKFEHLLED

For `CC(=O)c1cc2c(o1)C(=O)c1ccccc1C2=O` [NAPABUCASIN], the Activity [1] was “Non-Toxic”, the inhibition in vivo at 30 mg/kg (BXPC-3 [2]) was 34.2% and the Activity [3] was “Non-Toxic”. The inhibition in vivo at 30 mg/kg [4] was 41.8%, the Activity [5] was “Non-Toxic” and the Activity [6] was “Non-Toxic”. The Activity [7] was “Non-Toxic”, the Activity [8] was “Non-Toxic” and the Activity [9] was “Non-Toxic”.

For `CN[C@@H]1C[C@H]2O[C@@](C)([C@@H]1OC)n1c3ccccc3c3c4c(c5c6ccccc6n2c5c31)C(=O)NC4=O` (stereo in doubt; 15), the Activity [10] was “Non-Toxic”, the IC50 [11] was 6 nM and the inhibition in vivo at 6 mg/kg (BXPC-3 [12]) was 49.6%. The Activity [13] was “Non-Toxic”, the IC50 (BXPC-3 [14]) was 430 nM and the IC50 (ASPC1) was 1200 nM. The IC50 (A549) was 780 nM, the IC50 (NCI-H1299) was 2030 nM and the IC50 (NCI-H1975) was 2010 nM. The IC50 (PC-9) was 1880 nM, the IC50 (RKO) was 1470 nM and the IC50 (MGC-803) was 1520 nM. For the same molecule, the Activity (BXPC-3 [15]) was 63.54%, the Activity (BXPC-3 [16]) was 33.77% and the Activity (BXPC-3 [17]) was 2.66%. It also gave an Activity (BXPC-3 [18]) of 0.04%, an Activity (BXPC-3 [19]) of 46.45% and an Activity (BXPC-3 [20]) of 46.07%. The Activity (BXPC-3 [21]) was 6.89%, the Activity (BXPC-3 [22]) was 0.59% and the IC50 [23] was 21 nM. For the same molecule, the Activity [24] was “Non-Toxic”, the inhibition in vivo at 6 mg/kg [25] was 56.9% and the Activity [26] was “Non-Toxic”. For the same molecule, the Activity [27] was “Non-Toxic”, the Activity [28] was “Non-Toxic” and the Activity [29] was “Non-Toxic”. For the same molecule, the Activity [30] was “Non-Toxic”.
